Here are results for 31 compounds from patent US11208412B2 (DAEGU-GYEONGBUK MEDICAL INNOVATION FOUNDATION, priority 2017, dated 2021).

T1 sequence (Q5S007 whole entry): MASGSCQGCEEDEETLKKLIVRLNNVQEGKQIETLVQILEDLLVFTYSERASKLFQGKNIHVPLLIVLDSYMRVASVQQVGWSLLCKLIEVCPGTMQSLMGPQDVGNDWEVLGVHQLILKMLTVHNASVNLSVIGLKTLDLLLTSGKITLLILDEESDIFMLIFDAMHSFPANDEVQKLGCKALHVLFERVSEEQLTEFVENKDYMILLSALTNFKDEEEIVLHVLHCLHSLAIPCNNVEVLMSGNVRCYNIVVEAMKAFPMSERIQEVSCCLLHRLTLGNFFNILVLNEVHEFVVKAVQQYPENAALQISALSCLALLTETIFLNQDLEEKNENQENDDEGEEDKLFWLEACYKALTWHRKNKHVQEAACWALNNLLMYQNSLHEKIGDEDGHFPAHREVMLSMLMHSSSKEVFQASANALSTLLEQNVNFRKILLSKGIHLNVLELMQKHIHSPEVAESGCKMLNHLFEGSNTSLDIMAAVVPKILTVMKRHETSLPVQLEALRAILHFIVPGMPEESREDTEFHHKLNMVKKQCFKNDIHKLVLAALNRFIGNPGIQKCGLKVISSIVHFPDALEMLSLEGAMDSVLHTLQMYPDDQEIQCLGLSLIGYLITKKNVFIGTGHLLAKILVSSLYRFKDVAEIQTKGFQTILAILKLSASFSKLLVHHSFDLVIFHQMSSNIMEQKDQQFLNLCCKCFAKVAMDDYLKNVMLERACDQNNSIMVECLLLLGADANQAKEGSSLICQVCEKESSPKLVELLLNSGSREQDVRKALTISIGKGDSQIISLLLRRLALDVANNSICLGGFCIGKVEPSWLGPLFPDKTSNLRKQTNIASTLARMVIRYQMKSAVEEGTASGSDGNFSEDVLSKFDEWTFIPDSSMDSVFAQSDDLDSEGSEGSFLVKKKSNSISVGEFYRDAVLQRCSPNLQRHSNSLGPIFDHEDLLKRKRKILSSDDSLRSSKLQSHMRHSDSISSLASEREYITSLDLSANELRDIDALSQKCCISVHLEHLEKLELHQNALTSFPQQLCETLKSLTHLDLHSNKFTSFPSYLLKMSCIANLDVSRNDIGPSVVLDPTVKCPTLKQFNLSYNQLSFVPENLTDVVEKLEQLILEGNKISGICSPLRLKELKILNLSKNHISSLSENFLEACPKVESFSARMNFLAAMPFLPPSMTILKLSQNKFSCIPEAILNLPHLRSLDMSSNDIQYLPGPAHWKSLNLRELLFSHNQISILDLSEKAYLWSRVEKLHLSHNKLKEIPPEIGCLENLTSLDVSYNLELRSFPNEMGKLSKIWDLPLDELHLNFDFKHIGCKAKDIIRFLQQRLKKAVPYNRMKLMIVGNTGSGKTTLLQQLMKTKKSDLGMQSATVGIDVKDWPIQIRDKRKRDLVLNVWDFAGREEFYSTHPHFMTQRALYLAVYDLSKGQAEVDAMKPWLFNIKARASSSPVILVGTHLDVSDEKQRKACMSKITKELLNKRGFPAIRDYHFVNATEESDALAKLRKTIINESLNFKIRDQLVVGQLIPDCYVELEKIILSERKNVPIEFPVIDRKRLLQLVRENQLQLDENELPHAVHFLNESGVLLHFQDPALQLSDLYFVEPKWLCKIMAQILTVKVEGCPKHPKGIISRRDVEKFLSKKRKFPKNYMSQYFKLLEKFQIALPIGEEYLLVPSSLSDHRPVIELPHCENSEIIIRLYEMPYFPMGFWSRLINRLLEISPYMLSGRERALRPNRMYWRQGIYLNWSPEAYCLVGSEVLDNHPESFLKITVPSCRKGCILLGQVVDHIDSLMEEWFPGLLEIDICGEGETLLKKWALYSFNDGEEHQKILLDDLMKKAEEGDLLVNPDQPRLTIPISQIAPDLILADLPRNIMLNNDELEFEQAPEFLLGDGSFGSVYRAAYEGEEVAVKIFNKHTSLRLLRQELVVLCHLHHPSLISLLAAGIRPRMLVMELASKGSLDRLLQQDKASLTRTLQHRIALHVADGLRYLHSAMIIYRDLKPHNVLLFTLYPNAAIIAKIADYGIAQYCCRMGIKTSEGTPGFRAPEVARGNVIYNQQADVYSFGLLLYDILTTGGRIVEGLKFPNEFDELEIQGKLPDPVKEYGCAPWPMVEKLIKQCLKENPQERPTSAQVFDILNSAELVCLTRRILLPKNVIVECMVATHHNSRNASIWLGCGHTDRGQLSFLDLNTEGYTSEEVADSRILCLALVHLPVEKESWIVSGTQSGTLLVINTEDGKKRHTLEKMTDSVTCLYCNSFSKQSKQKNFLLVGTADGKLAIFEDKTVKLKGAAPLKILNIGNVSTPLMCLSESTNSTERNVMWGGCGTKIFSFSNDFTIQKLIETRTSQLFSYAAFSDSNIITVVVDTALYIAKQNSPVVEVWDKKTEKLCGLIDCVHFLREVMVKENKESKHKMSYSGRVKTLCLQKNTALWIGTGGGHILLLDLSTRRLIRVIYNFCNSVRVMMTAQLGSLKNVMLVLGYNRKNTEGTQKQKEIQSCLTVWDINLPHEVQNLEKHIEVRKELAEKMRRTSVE

The assay addresses T1, recombinant LRRK2 kinase (Homo sapiens, UniProt Q5S007).
T1 construct: purchased Signal Chem, Richmond, BC, Canada
In words: LRRK2 kinase inhibition (Kinase-Glo luminescence). As to conditions: IC50 grade; 25 μmol/L ATP, LRRKtide, 30° C. 2 hours; read-out: Enzyme activity LRRK2. It counts as biochemical. The protocol:
Upon completion of the reaction, an equal amount of Kinase-Glo (Promega, Madison, Wis.) solution was added thereto, followed by reaction for 40 minutes. A detection solution was added thereto, followed by further reaction at room temperature for 30 minutes. Then, IC50 of kinase was calculated by measuring the amount of luciferase using a microplate ELISA reader (Bio-Tek).
(Kinase-Glo measures the ATP left after a reaction by luminescence.)
`CNc1nc(Nc2cc(F)c(C(=O)N3CCC(N4CCOCC4)CC3)cc2OC)nc2[nH]cc(C#N)c12` [Example 11, 2-((5-fluoro-2-methoxy-4-(4-morpholinopiperidine-1-carbonyl)phenyl)amino)-4-(methylamino)-7H-pyrrolo[2,3-d]pyrimidine-5-carbonitrile]: the IC50 was below 0.01 µM.

For `COc1cc(C(=O)N2CCOCC2)ccc1Nc1nc(OC(C)C)c2c(C#N)c[nH]c2n1` [Example 90, 4-isoprofoxy-2-((2-methoxy-4-(morpholine-4-carbonyl)phenyl)amino)-7H-pyrrolo[2,3-d]pyrimidine-5-carbonitrile], the IC50 was below 0.01 µM.

As for `COc1cc(C(=O)N2CCOCC2)ccc1Nc1nc(OC2(C)CC2)c2c(C#N)c[nH]c2n1` [Example 95, 2-((2-methoxy-4-(morpholine-4-carbonyl)phenyl)amino)-4-(1-methylcyclopropoxy)-7H-pyrrolo[2,3-d]pyrimidine-5-carbonitrile], the IC50 is below 0.01 µM.

`CNc1nc(Nc2ccc(C(=O)N3C[C@@H](C)O[C@@H](C)C3)cc2OC)nc2[nH]cc(C#N)c12` [Example 22, 2-((4-((2R,6S)-2,6-dimethylmorpholine-4-carbonyl)-2-methoxyphenyl)amino)-4-(methylamino)-7H-pyrrolo[2,3-d]pyrimidine-5-carbonitrile]: the IC50 is 0.01 to 0.1 µM.

For the compound `CCNc1nc(Nc2ccc(C(=O)N3CCC(N4CCN(C)CC4)CC3)cc2OC)nc2[nH]cc(C(F)(F)F)c12` [Example 106], the IC50 is below 0.01 µM.

In the case of `COc1cc(C(=O)N2CCC(N3CCOCC3)CC2)c(F)cc1Nc1nc(O[C@H]2CCOC2)c2c(C#N)c[nH]c2n1` [Example 93, (S)-2-((5-fluoro-2-methoxy-4-(4-morpholinopiperidine-1-carbonyl)phenyl)amino)-4-((tetrahydrofuran-3-yl)oxy)-7H-pyrrolo[2,3-d]pyrimidine-5-carbonitrile], the IC50 was below 0.01 µM.

Consider `CCNc1nc(Nc2cc(OC)c(OC)c(OC)c2)nc2[nH]cc(C#N)c12` [Example 3, 4-(ethylamino)-2-((3,4,5-trimethoxyphenyl)amino)-7H-pyrrolo[2,3-d]pyrimidine-5-carbonitrile], for which the IC50 was below 0.01 µM.

Turning to `CC1(Nc2nc(Nc3cnn([C@H]4CCN(C5COC5)C[C@@H]4F)c3)nc3[nH]cc(C#N)c23)CC1` [Example 54, 2-((1-((3S,4S)-3-fluoro-1-(oxetane-3-yl)piperidine-4-yl)-1H-pyrazole-4-yl)amino)-4-((methylcyclopropyl)amino)-7H-pyrrolo[2,3-d]pyrimidine-5-carbonitrile], the IC50 is below 0.01 µM.

In the case of `CNc1nc(Nc2cn(C(C)(C)C#N)nc2Cl)nc2[nH]cc(C#N)c12` [Example 71, 2-((3-chloro-1-(2-cyanopropane-2-yl)-1H-pyrazole-4-yl)amino)-4-(methylamino)-7H-pyrrolo[2,3-d]pyrimidine-5-carbonitrile], the IC50 is below 0.01 µM.

Take `Cc1nn(C(C)(C)C#N)cc1Nc1nc(OC2(C)CC2)c2c(C#N)c[nH]c2n1` [Example 94, 2-((1-(2-cyanopropane-2-yl)-3-methyl-1H-pyrazole-4-yl)amino)-4-(1-methylcyclopropoxy)-7H-pyrrolo[2,3-d]pyrimidine-5-carbonitrile]: the IC50 is below 0.01 µM.

On to `CCNc1nc(Nc2ccc(C(=O)N3CCC(F)(F)CC3)cc2OC)nc2[nH]cc(C#N)c12` [Example 27, 2-((4-(4,4-difluoropiperidine-1-carbonyl)-2-methoxyphenyl)amino)-4-(ethylamino)-7H-pyrrolo[2,3-d]pyrimidine-5-carbonitrile], for which the IC50 is below 0.01 µM.

As to `COc1cc(C(=O)N2CCOCC2)ccc1Nc1nc(OC2CCOC2)c2c(C(F)(F)F)c[nH]c2n1` (stereo not shown) [Example 124, (3-methoxy-4-((4-((tetrahydrofuran-3-yl)oxy)-5-(trifluoromethyl)-7H-pyrrolo[2,3-d]pyrimidine-2-yl)amino)phenyl)(morpholino)methanone], the IC50 lay within 0.01 to 0.1 µM.

For the compound `COc1cc(C(=O)N2CCO[C@@H](C)C2)ccc1Nc1nc(OC2(C)CC2)c2c(C#N)c[nH]c2n1` [Example 99, (S)-2-((2-methoxy-4-(2-methylmorpholine-4-carbonyl)phenyl)amino)-4-(1-methylcyclopropoxy)-7H-pyrrolo[2,3-d]pyrimidine-5-carbonitrile], the IC50 is below 0.01 µM.

For `CCNc1nc(Nc2cnn(C(C)(C)C#N)c2Cl)nc2[nH]cc(C#N)c12` [Example 74, 2-((5-chloro-1-(2-cyanopropane-2-yl)-1H-pyrazole-4-yl)amino)-4-(ethylamino)-7H-pyrrolo[2,3-d]pyrimidine-5-carbonitrile], the IC50 was below 0.01 µM.

Consider `CNc1nc(Nc2ccc(C(=O)N3CCC(F)(F)CC3)cc2OC)nc2[nH]cc(C#N)c12` [Example 23], for which the IC50 was below 0.01 µM.

Turning to `CCNc1nc(Nc2cc3c(cc2OC)N(C)C(=O)C(C)(C)O3)nc2[nH]cc(C#N)c12` [Example 131, 4-(ethylamino)-2-((6-methoxy-2,2,4-trimethyl-3-oxo-3,4-dihydro-2H-benzo[b][1,4]oxazine-7-yl)amino)-7H-pyrrolo[2,3-d]pyrimidine-5-carbonitrile], the IC50 lay within 0.01 to 0.1 µM.

Regarding `CNc1nc(Nc2cc(F)c(C(=O)N3CCN(C)C[C@H]3C)cc2OC)nc2[nH]cc(C#N)c12` [Example 80, (R)-2-((4-(2,4-dimethylpiperazine-1-carbonyl)-5-fluoro-2-methoxyphenyl)amino)-4-(methylamino)-7H-pyrrolo[2,3-d]pyrimidine-5-carbonitrile], the IC50 is 0.01 to 0.1 µM.

`CCNc1nc(Nc2ccc(C(=O)N3CCC(N4CCOCC4)CC3)cc2OC)nc2[nH]cc(C#N)c12` [Example 8, 4-(ethylamino)-2-((2-methoxy-4-(4-morpholinopiperidine-1-carbonyl)phenyl)amino)-7H-pyrrolo[2,3-d]pyrimidine-5-carbonitrile]: the IC50 was below 0.01 µM.

As to `CCCNc1nc(Nc2cc(F)c(C(=O)N3CCC(N4CCOCC4)CC3)cc2OC)nc2[nH]cc(C#N)c12` [Example 15, 2-((5-fluoro-2-methoxy-4-(4-morpholinopiperidine-1-carbonyl)phenyl)amino)-4-(propylamino)-7H-pyrrolo[2,3-d]pyrimidine-5-carbonitrile], the IC50 was below 0.01 µM.

As for `COc1cc(C(=O)N2CCOCC2)ccc1Nc1nc(NC2(C)CC2)c2c(C#N)c[nH]c2n1` [Example 36, 2-((2-methoxy-4-(morpholine-4-carbonyl)phenyl)amino)-4-((1-methylcyclopropyl)amino)-7H-pyrrolo[2,3-d]pyrimidine-5-carbonitrile], the IC50 is below 0.01 µM.

For `F[C@H]1CN(C2COC2)CC[C@@H]1n1ncc(Nc2nc(OC3CCOC3)c3c(C(F)(F)F)c[nH]c3n2)c1Cl` (stereo partly shown) [Example 127], the IC50 was 0.01 to 0.1 µM.

For `CCNc1nc(Nc2cc(F)c(C(=O)NC3CCN(C)CC3)cc2OC)nc2[nH]cc(C#N)c12` [Example 66, 4-((5-cyano-4-(ethylamino)-7H-pyrrolo[2,3-d]pyrimidine-2-yl)amino)-2-fluoro-5-methoxy-N-(1-methylpiperidine-4-yl)benzamide], the IC50 was in the range of 0.01 to 0.1 µM.

On to `COc1cc(C(=O)N2C[C@@H](C)O[C@@H](C)C2)ccc1Nc1nc(OC2(C)CC2)c2c(C#N)c[nH]c2n1` [Example 100, 2-((4-((2R,6S)-2,6-dimethylmorpholine-4-carbonyl)-2-methoxyphenyl)amino)-4-(1-methylcyclopropoxy)-7H-pyrrolo[2,3-d]pyrimidine-5-carbonitrile], for which the IC50 is 0.01 to 0.1 µM.

Consider `CCNc1nc(Nc2cnn([C@H]3CCN(C4COC4)C[C@@H]3F)c2Cl)nc2[nH]cc(C#N)c12` [Example 51, 2-((5-chloro-1-((3S,4S)-3-fluoro-1-(oxetane-3-yl)piperidine-4-yl)-1H-pyrazole-4-yl)amino)-4-(ethylamino)-7H-pyrrolo[2,3-d]pyrimidine-5-carbonitrile], for which the IC50 was below 0.01 µM.

Regarding `CNc1nc(Nc2ccc(C(=O)N3CCN(C4COC4)CC3)cc2OC)nc2[nH]cc(C#N)c12` [Example 57], the IC50 is below 0.01 µM.

Turning to `CCNc1nc(Nc2cc3c(cc2OC)C(=O)N(C)C3)nc2[nH]cc(C#N)c12` [Example 130, 4-(ethylamino)-2-((6-methoxy-2-methyl-1-oxoisoindol-5-yl)amino)-7H-pyrrolo[2,3-d]pyrimidine-5-carbonitrile], the IC50 is below 0.01 µM.

Regarding `CNc1nc(Nc2cnn(C(C)C)c2C)nc2[nH]cc(C#N)c12` [Example 31, 6-((1-isopropyl-5-methyl-1H-pyrazole-4-yl)amino)-4-(methylamino)-1H-pyrrolo[2,3-b]pyrimidine-3-carbonitrile], the IC50 was below 0.01 µM.

For `COc1cc(C(=O)N2CCOCC2)c(F)cc1Nc1nc(OC2(C)CC2)c2c(C#N)c[nH]c2n1` [Example 97, 2-((5-fluoro-2-methoxy-4-(morpholine-4-carbonyl)phenyl)amino)-4-(1-methylcyclopropoxy)-7H-pyrrolo[2,3-d]pyrimidine-5-carbonitrile], the IC50 is below 0.01 µM.

`CNc1nc(Nc2cc(F)c(C(=O)NC3CCN(C4COC4)CC3)cc2OC)nc2[nH]cc(C#N)c12` [Example 63, 4-((5-cyano-4-(methylamino)-7H-pyrrolo[2,3-d]pyrimidine-2-yl)amino)-2-fluoro-5-methoxy-N-(1-(oxetane-3-pyrrolidine-1-yl)piperidine-4-yl)benzamide]: the IC50 was below 0.01 µM.

For the compound `F[C@H]1CN(C2COC2)CC[C@@H]1n1ncc(Nc2nc(NC3CC3)c3c(C(F)(F)F)c[nH]c3n2)c1Cl` [Example 117, N^2-(5-chloro-1-((3S,4S)-3-fluoro-1-(oxetane-3-yl)piperidine-4-yl)-1H-pyrazole-4-yl)-N^4-cyclopropyl-5-(trifluoromethyl)-7H-pyrrolo[2,3-d]pyrimidine-2,4-diamine], the IC50 was in the range of 0.01 to 0.1 µM.

On to `COc1cc(C(=O)N2CCOCC2)c(F)cc1Nc1nc(NC2CC2)c2c(C#N)c[nH]c2n1` [Example 18, 4-(cyclopropylamino)-2-((5-fluoro-2-methoxy-4-(morpholine-4-carbonyl)phenyl)amino)-7H-pyrrolo[2,3-d]pyrimidine-5-carbonitrile], for which the IC50 was in the range of 0.01 to 0.1 µM.
